Data from publication PMC3196298 (Bioorganic & medicinal chemistry, 2011).

How the values were obtained:
[1] = molecular target: AChE purified from Electrophorus electricus (Electric eel) (Electrophorus electricus, UniProt O42275); test: biochemical; format: biochemical
AChE [2] = molecular target: AChE (Electrophorus electricus, UniProt O42275); format: biochemical
BChE = BChE (Equus caballus, UniProt P81908); format: biochemical, equine
[3] = in vivo; cited from earlier work
AChE [4] = conditions: cited from earlier work
cholinergic esterases = format: biochemical
BoNT/A induced paralysis = conditions: cited from earlier work

AChE purified from Electrophorus electricus (Electric eel), sequence (O42275 24-633): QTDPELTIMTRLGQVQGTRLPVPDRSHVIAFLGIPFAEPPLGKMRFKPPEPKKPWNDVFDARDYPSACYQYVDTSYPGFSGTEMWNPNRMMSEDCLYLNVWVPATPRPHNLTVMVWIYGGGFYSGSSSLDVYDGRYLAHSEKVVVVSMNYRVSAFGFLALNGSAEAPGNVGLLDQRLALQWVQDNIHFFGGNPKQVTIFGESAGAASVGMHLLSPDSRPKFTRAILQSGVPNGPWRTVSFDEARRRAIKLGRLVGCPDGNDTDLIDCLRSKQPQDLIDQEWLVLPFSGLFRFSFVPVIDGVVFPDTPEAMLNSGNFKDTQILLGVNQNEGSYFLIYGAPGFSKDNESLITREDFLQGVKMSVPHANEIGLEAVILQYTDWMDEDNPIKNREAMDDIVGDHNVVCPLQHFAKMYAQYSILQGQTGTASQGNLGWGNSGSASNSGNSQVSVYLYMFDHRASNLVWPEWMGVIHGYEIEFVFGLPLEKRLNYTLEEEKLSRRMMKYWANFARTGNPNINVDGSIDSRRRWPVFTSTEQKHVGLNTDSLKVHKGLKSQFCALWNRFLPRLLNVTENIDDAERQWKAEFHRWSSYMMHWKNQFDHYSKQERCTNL
BChE, sequence (P81908 whole entry): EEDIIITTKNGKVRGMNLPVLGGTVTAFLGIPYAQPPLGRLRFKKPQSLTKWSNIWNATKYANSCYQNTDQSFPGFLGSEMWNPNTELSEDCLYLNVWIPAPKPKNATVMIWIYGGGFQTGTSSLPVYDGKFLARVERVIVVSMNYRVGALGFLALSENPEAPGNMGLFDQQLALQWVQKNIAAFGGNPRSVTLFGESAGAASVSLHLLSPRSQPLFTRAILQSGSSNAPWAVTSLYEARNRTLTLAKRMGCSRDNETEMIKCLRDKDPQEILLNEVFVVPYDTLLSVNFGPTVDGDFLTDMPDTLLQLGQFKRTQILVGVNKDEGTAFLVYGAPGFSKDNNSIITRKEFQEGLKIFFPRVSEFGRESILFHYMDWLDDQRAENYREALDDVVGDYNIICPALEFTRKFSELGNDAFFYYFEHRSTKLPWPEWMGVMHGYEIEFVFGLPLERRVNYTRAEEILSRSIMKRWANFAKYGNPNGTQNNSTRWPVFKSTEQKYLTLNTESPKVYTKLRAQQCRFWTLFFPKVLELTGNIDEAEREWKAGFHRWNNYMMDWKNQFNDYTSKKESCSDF
AChE (Electrophorus electricus, UniProt O42275), sequence (O42275 24-633): as the sequence (O42275 24-633) above

CC(=O)Nc1ccncc1N [Compound 21]
kinetic mechanism of inhibition of AChE [1]: competitive inhibition
release of 3,4-DAP upon incubation with AChE (in words) (AChE [2]): did not undergo internal release

CCC(=O)Oc1ccc(COC(=O)Nc2ccncc2N)cc1 [Compound 6b]
binding to AChE more tightly than Km for ACh [1]: 100 fold
selectivity of AChE over BChE (in words) [1]: moderate selectivity
apparent kcat relative to natural substrate BCh (BChE): approximately 10^−4

Nc1ccncc1N [3,4-DAP, 3,4-diaminopyridine]
toxicity issues at high doses (in words) [3]: seizures

CC(=O)OCC[N+](C)(C)C [ACh, acetylcholine]
Km (AChE [4]): 400 µM

Nc1ccncc1 [4-AP, 4-aminopyridine]
toxicity issues at high doses (in words) [3]: seizures

COC(=O)Nc1ccncc1N [Compound 19]
enzymatic generation of 3,4-DAP (in words) (cholinergic esterases): failed as pseudosubstrates to generate 3,4-DAP enzymatically

CC(C)C(=O)Oc1ccc(COC(=O)Nc2ccncc2N)cc1 [Compound 6d]
binding to AChE more tightly than Km for ACh [1]: 100 fold
selectivity of AChE over BChE (in words) [1]: moderate selectivity
apparent kcat relative to natural substrate BCh (BChE): approximately 10^−4

COC(=O)Nc1ccncc1NC(=O)OC [Compound 17]
enzymatic generation of 3,4-DAP (in words) (cholinergic esterases): failed as pseudosubstrates to generate 3,4-DAP enzymatically

COC(=O)Nc1cnccc1N [Compound 16]
enzymatic generation of 3,4-DAP (in words) (cholinergic esterases): failed as pseudosubstrates to generate 3,4-DAP enzymatically

C#CC[n+]1ccc(N)c(N)c1 [3,4-diamino-1-(prop-2-ynl)pyridinium]
paralysis reversal (in words) (BoNT/A induced paralysis): paralysis reversal

CC(C)OC(=O)CCC(=O)Nc1ccncc1N [Compound 32]
Ki [1]: 3 µM
selectivity of AChE over BChE (in words) [1]: inhibited AChE selectively over BChE
half-life in mouse sera: 2.8 h
release of 3,4-DAP upon incubation with AChE (in words) (AChE [2]): negligible release of 3,4-DAP

Nc1cncc(N)c1N [3,4,5-triaminopyridine]
paralysis reversal (in words) (BoNT/A induced paralysis): paralysis reversal
